Test results reported in US12534465B2, “5H-pyrrolo[3,2-d]pyrimidine-2,4-diamino compounds and antibody conjugates thereof” (SUTRO BIOPHARMA, INC., priority 2019, dated 2026).

Assays:
[1] = test system: MC38-hFolRα tumors; experiment: Anti-tumor activity in mice bearing established MC38-hFolRα tumors; format: in vivo, mouse; conditions: Day 0 and 4; for tumor growth inhibition (TGI): compared to vehicle control on day 10, p<0.0001
From the text: This example evaluates the response of MC38-hFolRα tumors to treatment with Compound 2, a TLR 7 agonist.
(§1) Female C57BL/6 mice at 9-10 weeks of age were anesthetized with isoflurane and implanted subcutaneously into the right hind flank with 1×10^6 MC38-hFolRα (murine colon adenocarcinoma cells engineered to express hFolRα). Randomization and start of treatment was initiated when the average tumor size was approximately 150 mm^3 (designated as Day 0 post-treatment). Animals received intratumoral (IT) injections of Compound 2 on Day 0 and Day 4 (q4d×2). Compound 2 was dissolved in DMSO and dosing solutions were formulated in PBS. Body weight and tumor size were monitored 3×/week. The primary study endpoint was reached when the mean tumor size of the vehicle control group was >1,200 mm^3.

[2] = Body weight / tolerability in MC38-hFolRα tumor-bearing mice; format: in vivo, mouse
Description: as §1

[3] = test system: cyno PBMCs; experiment: Cytokine release (ELISA); format: cell-based, cynomolgus monkey; conditions: 48 hr, 10 μg/mL LPS-RS
Description: This example evaluates the ability of Compound 10 to induce cytokine release in human PBMCs, cyno PBMCs and mouse splenocytes. Compound 1 and resiquimod:
Human and cyno PBMCs, mouse splenocytes were isolated as described in previous example. The day of the assay, 300 k of PBMC or splenocytes in 50 μL of culture medium were seeded in 96-well cell culture plates. 50 μl of the test articles (formulated at 2× of starting concentration) were then added into the well. The cell mixtures were co-cultured in the presence of test articles and 10 μg/mL LPS-RS for 24 hr (human PBMCs) or 48 hr (cyno PBMCs and mouse splenocytes). Cytokines released were measured by ELISA using cell culture medium.

[4] = test system: human PBMCs; experiment: Immune cell activation (CD86 expression, flow cytometry); format: cell-based; conditions: 48 hr, 10 μg/ml LPS-RS
From the text: This example evaluates the ability of Compound 10 to stimulate the activation of different immune cells populations (monocyte, B cell, and DCs), in human PBMCs (Peripheral blood mononuclear cells), cyno PBMCs and mouse splenocytes.
Peripheral blood mononuclear cells (PBMCs) were isolated from fresh collected blood from two healthy human donors and two cynomolgus monkey donors using Leukosep tube and Nycoprep 1.077 buffer according to the manufacture's recommendation. Mouse splenocytes were isolated from C57/BL6 mouse spleens by macerating and straining over a 70 μm cell strainer. Isolated PBMCs or splenocytes were then frozen down using frozen medium. On the day of the assay, PBMCs or splenocytes were thawed and cultured in PBMC culture medium (RPMI supplemented with 10% heat-inactivated fetal bovine serum from Hyclone, 1% Penicillin/Streptomycin and 2 mmol/L-glutamax). 300 k of PBMC or splenocytes in 50 μl of culture medium were seeded in 96-well cell culture plates. 50 μl of the test articles (formulated at 2× of starting concentration) were then added into the well. The cell mixtures were co-cultured in the presence of test articles and 10 μg/ml LPS-RS for 48 hr. The cells were collected by Accutase and then stained with antibodies to different cell population markers and activation markers. Cells were washed, fixed with 2% PFA overnight, and read on the Attune N×T cytometer (Thermo Fisher). Monocyte activation was indicated as increase of CD86 expression on CD14+ cells. B cell activation was indicated as increase of CD86 expression on CD14−/Lin+/HLA-DR+ cells. Dendritic cells (DC) activation was indicated as increase of CD86 expression on CD14−/Lin−/HLA-DR+/CD123+ cells.

| SMILES | tumor growth inhibition (TGI) ([1]; 0.1 mg/kg intratumoral) | tumor growth inhibition (TGI) ([1]; 0.5 mg/kg intratumoral) | tumor growth inhibition (TGI) ([1]; 2 mg/kg intratumoral) | MC38-hFolRα tumor growth delay ([1]; 0.1-2 mg/kg intratumoral) | tolerability ([2]; 0.1-2 mg/kg intratumoral, Day 0 and 4) | dose-related minimal body weight loss ([2]; FIG. 7A legend, mice bearing MC38-hFolRα tumors) | body weight loss ([2]; doses >0.5 mg/kg intratumoral, Day 0 and 4, recovery by approximately Day 7, FIG. 7A) | IL-6 release ([3]; FIG. 5A) | MCP-1 release ([3]; FIG. 5B) | activation of monocytes ([4]; FIG. 1A) | activation of B cells ([4]; FIG. 1B) | activation of cDCs ([4]; FIG. 1C) | activation of pDCs ([4]; FIG. 1D) |
| --- | --- | --- | --- | --- | --- | --- | --- | --- | --- | --- | --- | --- | --- |
| CCCCCNc1nc(N)nc2ccn(Cc3ccc(CN4CC(NC)C4)cc3OC)c12 [Compound 2, 5-(2-methoxy-4-((3-(methylamino)azetidin-1-yl)methyl)benzyl)-N4-pentyl-5H-pyrrolo[3,2-d]pyrimidine-2,4-diamine] | 55% | 61% | 80% | significantly delayed | well tolerated | < 10 % of predose | approximately 5% | – | – | – | – | – | – |
| CCCCCNc1nc(N)nc2ccn(Cc3ccc(CN4CC5(CNCCO5)C4)cc3OC)c12 [Compound 10, 5-[[2-methoxy-4-(5-oxa-2,8-diazaspiro[3.5]nonan-2-ylmethyl)phenyl]methyl]-N4-pentyl-pyrrolo[3,2-d]pyrimidine-2,4-diamine] | – | – | – | – | – | – | – | strong | strong | very potent | very potent | very potent | very potent |
